Reference: ChEMBL document CHEMBL1201862, “PubChem BioAssay data set” (2004)
Active and inactive are the calls of the source.

Key:
[1] = NIH-3T3 fibroblast cytotoxicity, dose response, cytotoxicity control, cell-based, fluorescence, Alamar Blue, secondary assay (AID 2327); type: functional;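 further: NIH-3T3 mouse fibroblasts cultured with fluconazole at 8 µg/mL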
[2] = Luminescence Cell-Based Dose Retest to Confirm Inhibitors of Cancer Stem Cells. [Related pubchem assays (depositor defined):AID2717, AID2721]; type: functional; settings: Homo sapiens
[3] = fluconazole-exposed Candida albicans growth modulators – fluorescence, retest, confirmation (AID 2467); type: functional, cell-based
[4] = target: Heat shock protein HSP 90-alpha (Homo sapiens, UniProt P07900); type: functional, organism-based
[5] = target: T1, High affinity choline transporter 1 (Homo sapiens, UniProt Q9GZV3); assay: human choline transporter blockers, potency – cell-based, 5-point CRC, membrane potential dye, dose response (AID 504840); type: functional
T1 sequence (Q9GZV3 whole entry): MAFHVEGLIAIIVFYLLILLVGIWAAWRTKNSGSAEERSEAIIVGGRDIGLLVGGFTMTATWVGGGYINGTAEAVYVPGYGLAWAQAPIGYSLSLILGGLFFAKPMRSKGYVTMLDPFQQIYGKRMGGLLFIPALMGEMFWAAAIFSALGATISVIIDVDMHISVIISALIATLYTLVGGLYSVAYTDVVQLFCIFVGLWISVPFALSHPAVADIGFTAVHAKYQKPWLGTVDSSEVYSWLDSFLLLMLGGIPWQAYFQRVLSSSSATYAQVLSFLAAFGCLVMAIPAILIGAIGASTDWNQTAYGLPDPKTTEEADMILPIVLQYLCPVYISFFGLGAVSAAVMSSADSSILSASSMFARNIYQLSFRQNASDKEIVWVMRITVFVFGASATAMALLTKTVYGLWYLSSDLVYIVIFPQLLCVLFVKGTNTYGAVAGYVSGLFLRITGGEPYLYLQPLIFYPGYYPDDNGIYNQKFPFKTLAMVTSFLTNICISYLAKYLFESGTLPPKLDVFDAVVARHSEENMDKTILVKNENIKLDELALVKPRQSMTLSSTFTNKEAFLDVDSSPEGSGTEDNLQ

Cytochrome P450 2C9 = Cytochrome P450 2C9 (Homo sapiens, UniProt P11712)
[6] = target: T2, Polyadenylate-binding protein 1 (Homo sapiens, UniProt P11940); assay: MLLE binding blockers, Cy5 peptide tracer – biochemical, fluorescence polarization, Cy5-PAM2 peptide, secondary, miRNA deadenylation inhibitor project, dose response (AID 602260); type: functional; settings: read-out: IC50_Mean
[7] = target: T2, Polyadenylate-binding protein 1; assay: MLLE domain peptide-binding blockers, IC50 – biochemical, fluorescence polarization, FITC-PAM2 peptide, dose response (AID 602259); type: functional; settings: read-out: IC50_Mean
[8] = viability of PTEN-deleted HCT116 cells – cell-based, HCT116 PTEN knockout, dose response (AID 1047); type: functional;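 further: HCT116 colon tumor cells with PTEN knocked out; cells exposed to compound for 60 hours before readout; potency for loss of cell viability measured by luminescence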
[9] = Trypanosoma cruzi growth suppression in host cells – NIH3T3 host cells, beta-gal luminescence, confirmation (AID 2044); type: functional, cell-based;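 further: intracellular parasites grown in NIH/3T3 mouse fibroblasts as host cells; luminescent beta-galactosidase reporter signal from transgenic T. cruzi replicating inside host cells; inhibitors lower the luminescence signal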
[10] = target: T3, Ubiquitin-conjugating enzyme E2 N (Homo sapiens, UniProt P61088); type: functional;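 further: Dose-response confirmation in a TR-FRET assay detecting UBC13-driven polyubiquitin chain formation, inhibition measured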
T3 sequence (P61088 whole entry): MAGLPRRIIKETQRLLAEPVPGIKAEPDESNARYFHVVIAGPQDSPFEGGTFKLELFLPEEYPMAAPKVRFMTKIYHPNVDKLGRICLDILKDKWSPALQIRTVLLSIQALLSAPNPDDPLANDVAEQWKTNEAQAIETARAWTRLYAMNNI

[11] = NIH3T3 cell viability loss – ATP luminescence, mouse fibroblasts, counter-screen, dose response (AID 2010); type: functional, cell-based;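 further: cells exposed to compound for about 90 hours before reading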
[12] = viability of HCT116 lacking mutant beta-catenin – cell-based, human colon tumor, dose response (AID 1045); type: functional;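 further: HCT116 colon tumor cells with beta catenin knocked out; cells exposed to compound for 60 hours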
[13] = test system: Streptococcus sp. 'group A'; assay: Streptococcus pyogenes SK(-)GAS viability under kanamycin – luminescence, BacTiterGlo, confirmation, counter-screen for streptokinase expression inhibitor project, dose response (AID 1900); type: functional, organism-based
INS1 = assay: INS-1E survival protection against cytokine death – cell-based, luminescence, retest, dose response (AID 449756); type: functional; settings: Rattus norvegicus;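 further: cell death triggered by IL-1 beta plus TNF-alpha plus IFN-gamma mixture; protective hits raise ATP signal compared with cytokine alone wells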
Streptococcus = assay: GAS UMAA2166 growth inhibition – luminescence, BacTiterGlo, counter-screen for streptokinase expression inhibitor project, dose response (AID 1915); type: functional, organism-based;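 further: potency for reduction of bacterial viability or growth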
Cytochrome P450 1A2 = target: T4, Cytochrome P450 1A2 (Homo sapiens, UniProt P05177);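 further: PubChem cytochrome P450 panel assay, CYP1A2 panel member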
T4 sequence (P05177 whole entry): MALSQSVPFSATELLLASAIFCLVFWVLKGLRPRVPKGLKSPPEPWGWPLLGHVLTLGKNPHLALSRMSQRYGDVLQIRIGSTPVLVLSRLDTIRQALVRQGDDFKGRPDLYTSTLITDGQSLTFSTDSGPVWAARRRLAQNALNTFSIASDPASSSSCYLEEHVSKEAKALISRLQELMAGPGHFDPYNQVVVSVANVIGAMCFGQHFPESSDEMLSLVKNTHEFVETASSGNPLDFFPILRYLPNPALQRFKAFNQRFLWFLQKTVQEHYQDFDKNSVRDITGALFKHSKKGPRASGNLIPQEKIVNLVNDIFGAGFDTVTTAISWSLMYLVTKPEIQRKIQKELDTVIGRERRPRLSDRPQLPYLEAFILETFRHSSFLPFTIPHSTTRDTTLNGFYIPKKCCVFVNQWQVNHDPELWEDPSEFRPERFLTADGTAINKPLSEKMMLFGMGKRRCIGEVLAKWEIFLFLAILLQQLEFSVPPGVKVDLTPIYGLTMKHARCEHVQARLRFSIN

[14] = target: Voltage-dependent T-type calcium channel subunit alpha-1H (Homo sapiens, UniProt O95180); type: functional;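 further: channel activity triggered by adding a high calcium stimulation buffer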
Cytochrome P450 2D6 = Cytochrome P450 2D6 (Homo sapiens, UniProt P10635);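 further: CYP2D6 member of a cytochrome P450 panel assay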
[15] = blockers of HIV-1 envelope-mediated cell-cell fusion – cherry-pick, dose response (AID 652057); type: functional, cell-based
[16] = HIV-1 AD8 envelope cell-cell fusion blockers – cherry-pick, dose response (AID 652062); type: functional, cell-based;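 further: luciferase signal from cell-cell fusion driven by HIV-1 clade B AD8 Env; potency is for inhibitors of fusion seen as a drop in luminescence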
[17] = target: T5, Replicative DNA helicase DnaB (Mycobacterium tuberculosis, UniProt P9WMR3); assay: DnaB intein splicing inhibitors, dose response, biochemical, cell-free fluorescence (AID 449749); type: functional
T5 sequence (P9WMR3 whole entry): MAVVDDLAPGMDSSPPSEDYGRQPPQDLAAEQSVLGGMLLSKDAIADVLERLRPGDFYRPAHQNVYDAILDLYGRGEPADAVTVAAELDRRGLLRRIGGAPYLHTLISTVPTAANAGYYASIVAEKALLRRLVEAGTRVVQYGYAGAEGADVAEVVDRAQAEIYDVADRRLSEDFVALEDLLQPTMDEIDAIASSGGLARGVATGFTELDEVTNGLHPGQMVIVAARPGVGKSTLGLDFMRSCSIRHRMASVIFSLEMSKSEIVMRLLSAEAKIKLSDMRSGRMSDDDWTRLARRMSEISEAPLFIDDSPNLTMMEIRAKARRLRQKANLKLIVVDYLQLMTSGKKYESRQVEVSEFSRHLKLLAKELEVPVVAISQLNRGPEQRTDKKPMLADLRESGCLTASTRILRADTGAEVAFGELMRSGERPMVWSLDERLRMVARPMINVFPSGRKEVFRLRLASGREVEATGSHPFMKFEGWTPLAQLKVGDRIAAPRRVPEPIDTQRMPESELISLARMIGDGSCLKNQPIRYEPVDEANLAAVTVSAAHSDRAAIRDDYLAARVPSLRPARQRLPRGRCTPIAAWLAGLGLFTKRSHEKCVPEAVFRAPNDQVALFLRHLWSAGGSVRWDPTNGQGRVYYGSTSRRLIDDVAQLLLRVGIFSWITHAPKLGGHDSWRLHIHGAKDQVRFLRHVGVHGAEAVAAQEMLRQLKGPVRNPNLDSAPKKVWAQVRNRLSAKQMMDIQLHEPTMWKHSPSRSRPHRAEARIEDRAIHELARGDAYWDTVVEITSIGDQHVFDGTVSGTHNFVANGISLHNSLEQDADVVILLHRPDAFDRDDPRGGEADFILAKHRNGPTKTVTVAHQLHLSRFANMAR

Protein RecA = target: T6, Protein RecA (Mycobacterium tuberculosis, UniProt P9WHJ3); assay: Fluorescence Cell-Free Homogeneous Dose Retest to Identify Inhibitors of RecA-Intein Splicing Activity. [Related pubchem assays (depositor defined):AID2097, AID2223, AID489010, AID492950]; type: functional
T6 sequence (P9WHJ3 whole entry): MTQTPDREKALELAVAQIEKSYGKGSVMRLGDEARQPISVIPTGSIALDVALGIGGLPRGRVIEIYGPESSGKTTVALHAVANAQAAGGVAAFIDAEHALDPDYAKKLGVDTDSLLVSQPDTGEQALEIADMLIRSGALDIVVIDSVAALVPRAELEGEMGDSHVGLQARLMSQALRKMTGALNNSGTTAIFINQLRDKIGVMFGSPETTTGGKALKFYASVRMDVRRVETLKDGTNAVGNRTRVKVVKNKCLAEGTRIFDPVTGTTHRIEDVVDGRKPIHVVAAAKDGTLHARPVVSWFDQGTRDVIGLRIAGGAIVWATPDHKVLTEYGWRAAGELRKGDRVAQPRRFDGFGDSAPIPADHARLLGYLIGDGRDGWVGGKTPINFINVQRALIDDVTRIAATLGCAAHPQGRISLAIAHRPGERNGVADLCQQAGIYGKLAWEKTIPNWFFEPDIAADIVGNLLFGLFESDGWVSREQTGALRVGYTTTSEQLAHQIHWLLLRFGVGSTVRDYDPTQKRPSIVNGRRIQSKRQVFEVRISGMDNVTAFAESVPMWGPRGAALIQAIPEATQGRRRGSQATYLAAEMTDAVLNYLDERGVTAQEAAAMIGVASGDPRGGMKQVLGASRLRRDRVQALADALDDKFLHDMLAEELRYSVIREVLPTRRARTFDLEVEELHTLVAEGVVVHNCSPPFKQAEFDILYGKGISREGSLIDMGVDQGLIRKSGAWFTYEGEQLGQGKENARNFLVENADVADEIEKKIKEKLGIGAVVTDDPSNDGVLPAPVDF

Cytochrome P450 2C19 = Cytochrome P450 2C19 (Homo sapiens, UniProt P33261); assay: Cytochrome panel assay with activity outcomes. Panel member name: p450-cyp2c19 Compounds with AC50 equal or less than 10 uM are considered active; type: functional; settings: read-out: AC50
Large T antigen = Large T antigen (Simian virus 40, UniProt P03070); type: functional, Betapolyomavirus macacae;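 further: Confirmatory-stage PubChem screen for compounds that inhibit SV40 T antigen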
Sequence of Large T antigen (P03070 whole entry): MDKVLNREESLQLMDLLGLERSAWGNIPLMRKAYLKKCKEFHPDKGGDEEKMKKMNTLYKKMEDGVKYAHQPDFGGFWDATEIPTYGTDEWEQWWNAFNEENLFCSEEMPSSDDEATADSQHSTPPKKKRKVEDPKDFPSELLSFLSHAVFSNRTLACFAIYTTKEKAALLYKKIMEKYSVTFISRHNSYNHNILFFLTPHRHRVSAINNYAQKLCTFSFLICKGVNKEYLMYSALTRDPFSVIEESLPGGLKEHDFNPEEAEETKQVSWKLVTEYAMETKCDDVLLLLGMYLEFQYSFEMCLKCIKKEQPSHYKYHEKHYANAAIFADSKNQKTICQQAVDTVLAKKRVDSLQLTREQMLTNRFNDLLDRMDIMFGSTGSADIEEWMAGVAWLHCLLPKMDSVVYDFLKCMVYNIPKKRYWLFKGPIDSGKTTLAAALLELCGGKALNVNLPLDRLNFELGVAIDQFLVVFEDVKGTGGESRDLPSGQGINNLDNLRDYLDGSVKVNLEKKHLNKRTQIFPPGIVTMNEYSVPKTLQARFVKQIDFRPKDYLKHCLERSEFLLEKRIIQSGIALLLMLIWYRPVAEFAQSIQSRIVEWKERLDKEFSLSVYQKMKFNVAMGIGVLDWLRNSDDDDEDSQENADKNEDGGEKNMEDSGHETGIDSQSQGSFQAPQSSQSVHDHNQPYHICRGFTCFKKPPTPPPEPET

T2 sequence (P11940 whole entry, the tested form may be a part): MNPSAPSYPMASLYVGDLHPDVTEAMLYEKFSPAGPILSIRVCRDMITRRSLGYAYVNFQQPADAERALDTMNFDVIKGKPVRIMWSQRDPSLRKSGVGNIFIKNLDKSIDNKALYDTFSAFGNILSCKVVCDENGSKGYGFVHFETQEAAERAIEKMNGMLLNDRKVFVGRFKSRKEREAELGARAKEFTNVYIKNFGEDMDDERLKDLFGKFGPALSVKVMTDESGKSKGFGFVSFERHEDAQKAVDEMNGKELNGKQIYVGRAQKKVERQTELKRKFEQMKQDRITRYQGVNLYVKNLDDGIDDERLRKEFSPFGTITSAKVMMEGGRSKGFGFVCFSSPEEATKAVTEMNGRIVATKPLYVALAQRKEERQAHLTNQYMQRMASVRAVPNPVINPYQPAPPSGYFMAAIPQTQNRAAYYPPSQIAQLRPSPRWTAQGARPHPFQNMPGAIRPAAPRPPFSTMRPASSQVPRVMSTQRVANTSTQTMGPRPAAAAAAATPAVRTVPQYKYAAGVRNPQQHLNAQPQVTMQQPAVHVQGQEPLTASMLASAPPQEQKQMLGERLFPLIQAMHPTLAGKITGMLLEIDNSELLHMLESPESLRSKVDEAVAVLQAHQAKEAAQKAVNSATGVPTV
Sequence of Voltage-dependent T-type calcium channel subunit alpha-1H (O95180 whole entry): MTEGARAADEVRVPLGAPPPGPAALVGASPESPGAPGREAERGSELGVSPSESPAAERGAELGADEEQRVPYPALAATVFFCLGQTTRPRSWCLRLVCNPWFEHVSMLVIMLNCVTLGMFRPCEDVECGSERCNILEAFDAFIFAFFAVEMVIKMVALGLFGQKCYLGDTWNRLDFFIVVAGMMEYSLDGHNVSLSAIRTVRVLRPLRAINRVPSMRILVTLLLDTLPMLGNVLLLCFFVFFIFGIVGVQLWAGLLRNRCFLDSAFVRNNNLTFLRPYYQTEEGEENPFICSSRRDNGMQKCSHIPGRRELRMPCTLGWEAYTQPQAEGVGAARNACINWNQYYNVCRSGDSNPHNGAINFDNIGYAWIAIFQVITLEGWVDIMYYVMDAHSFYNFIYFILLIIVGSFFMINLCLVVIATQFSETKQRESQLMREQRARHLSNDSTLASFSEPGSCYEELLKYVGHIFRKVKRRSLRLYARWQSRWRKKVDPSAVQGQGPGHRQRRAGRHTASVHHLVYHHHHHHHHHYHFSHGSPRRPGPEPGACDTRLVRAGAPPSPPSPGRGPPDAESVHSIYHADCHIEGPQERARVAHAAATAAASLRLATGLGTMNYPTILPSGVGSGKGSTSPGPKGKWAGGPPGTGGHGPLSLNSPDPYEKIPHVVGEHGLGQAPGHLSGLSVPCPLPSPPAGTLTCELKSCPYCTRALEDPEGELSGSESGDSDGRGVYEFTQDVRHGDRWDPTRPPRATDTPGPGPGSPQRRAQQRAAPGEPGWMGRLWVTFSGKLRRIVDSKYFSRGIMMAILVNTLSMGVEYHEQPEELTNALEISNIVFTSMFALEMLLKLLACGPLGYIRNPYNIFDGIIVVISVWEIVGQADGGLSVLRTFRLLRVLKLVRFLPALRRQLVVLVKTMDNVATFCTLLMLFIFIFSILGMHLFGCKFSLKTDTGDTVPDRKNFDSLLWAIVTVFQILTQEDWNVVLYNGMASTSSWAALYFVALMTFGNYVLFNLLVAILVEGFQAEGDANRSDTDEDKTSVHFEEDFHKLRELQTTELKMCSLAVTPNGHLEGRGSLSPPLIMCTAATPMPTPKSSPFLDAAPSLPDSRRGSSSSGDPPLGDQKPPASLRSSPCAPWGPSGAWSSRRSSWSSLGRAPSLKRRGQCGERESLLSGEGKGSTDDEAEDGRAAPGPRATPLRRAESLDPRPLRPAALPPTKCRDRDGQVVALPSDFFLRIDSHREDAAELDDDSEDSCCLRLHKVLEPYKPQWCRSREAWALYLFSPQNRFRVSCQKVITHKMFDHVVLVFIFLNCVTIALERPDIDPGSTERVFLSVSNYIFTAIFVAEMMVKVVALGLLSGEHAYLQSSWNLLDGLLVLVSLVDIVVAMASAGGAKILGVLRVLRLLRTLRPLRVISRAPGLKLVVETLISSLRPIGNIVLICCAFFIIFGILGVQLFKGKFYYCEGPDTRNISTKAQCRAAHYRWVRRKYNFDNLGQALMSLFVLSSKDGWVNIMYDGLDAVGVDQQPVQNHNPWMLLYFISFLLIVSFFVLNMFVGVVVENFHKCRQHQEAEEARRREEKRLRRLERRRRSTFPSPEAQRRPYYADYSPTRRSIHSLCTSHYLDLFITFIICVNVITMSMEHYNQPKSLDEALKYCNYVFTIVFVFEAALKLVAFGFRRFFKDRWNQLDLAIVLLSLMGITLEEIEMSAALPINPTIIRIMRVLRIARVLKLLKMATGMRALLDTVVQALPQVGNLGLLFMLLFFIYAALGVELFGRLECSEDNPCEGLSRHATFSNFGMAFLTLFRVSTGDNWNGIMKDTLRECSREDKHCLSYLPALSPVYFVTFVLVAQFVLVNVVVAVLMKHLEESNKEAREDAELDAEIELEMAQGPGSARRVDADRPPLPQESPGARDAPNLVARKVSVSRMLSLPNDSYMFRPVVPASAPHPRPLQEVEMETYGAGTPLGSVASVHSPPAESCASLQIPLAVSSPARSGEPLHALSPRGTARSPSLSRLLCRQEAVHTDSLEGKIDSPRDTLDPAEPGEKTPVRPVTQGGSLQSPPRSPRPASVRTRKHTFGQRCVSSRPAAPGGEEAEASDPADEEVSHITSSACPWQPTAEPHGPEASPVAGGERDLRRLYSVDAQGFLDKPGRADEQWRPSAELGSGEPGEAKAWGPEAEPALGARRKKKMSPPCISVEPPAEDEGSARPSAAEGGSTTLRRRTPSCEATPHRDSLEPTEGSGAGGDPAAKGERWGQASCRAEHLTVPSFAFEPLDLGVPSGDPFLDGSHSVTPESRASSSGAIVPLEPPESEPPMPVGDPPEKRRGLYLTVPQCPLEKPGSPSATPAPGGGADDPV
Sequence of Cytochrome P450 2C9 (P11712 whole entry): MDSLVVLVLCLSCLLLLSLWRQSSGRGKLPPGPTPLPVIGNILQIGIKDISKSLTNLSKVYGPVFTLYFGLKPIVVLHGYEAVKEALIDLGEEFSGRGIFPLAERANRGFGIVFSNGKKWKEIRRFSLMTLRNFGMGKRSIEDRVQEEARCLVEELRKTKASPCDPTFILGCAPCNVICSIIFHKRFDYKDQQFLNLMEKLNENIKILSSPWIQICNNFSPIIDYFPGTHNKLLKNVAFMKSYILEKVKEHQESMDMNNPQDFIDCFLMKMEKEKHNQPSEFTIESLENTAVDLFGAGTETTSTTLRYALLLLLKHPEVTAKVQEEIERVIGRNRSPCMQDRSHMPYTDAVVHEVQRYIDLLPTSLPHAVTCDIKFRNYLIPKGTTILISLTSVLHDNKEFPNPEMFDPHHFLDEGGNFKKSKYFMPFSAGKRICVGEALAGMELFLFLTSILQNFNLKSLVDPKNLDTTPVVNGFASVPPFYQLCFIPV
Sequence of Cytochrome P450 2C19 (P33261 whole entry): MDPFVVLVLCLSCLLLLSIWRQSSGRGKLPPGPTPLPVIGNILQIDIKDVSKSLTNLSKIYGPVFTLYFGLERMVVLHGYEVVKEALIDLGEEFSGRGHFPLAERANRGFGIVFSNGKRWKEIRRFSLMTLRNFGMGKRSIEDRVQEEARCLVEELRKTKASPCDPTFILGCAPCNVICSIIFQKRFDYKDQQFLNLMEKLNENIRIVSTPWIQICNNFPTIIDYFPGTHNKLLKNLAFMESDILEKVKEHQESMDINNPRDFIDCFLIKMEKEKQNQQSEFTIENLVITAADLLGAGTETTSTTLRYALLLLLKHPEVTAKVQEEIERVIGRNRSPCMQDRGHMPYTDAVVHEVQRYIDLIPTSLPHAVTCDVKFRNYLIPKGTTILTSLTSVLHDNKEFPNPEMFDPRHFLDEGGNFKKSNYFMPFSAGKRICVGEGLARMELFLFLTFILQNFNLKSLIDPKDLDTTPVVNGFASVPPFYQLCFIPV

O=c1oc2ccccc2c(O)c1Cc1cc(Cl)c2cccnc2c1O
EC50 [1]: 76.3 µM (active) | AC50 [2]: 1.09 µM (active) | EC50 [3]: > 38 µM (not active) | AC50 [4]: 7.2 µM (active) | IC50 [5]: 15.2 µM (active)

Cc1cc(N2CCN(C(=O)c3ccco3)CC2)n2ncc(-c3ccccc3)c2n1
AC50 [4]: 2.23 µM (active)

Cc1ccc(S(=O)(=O)N[C@H]2COC(=O)C/C=C\[C@@H](C)COC(=O)C/C=C\[C@@H]2C)cc1
AC50 (Cytochrome P450 2C9): inconclusive

COc1ccc(Sc2nnc(Cc3ccccc3)c3ccccc23)cc1
IC50 [6]: > 66 µM (inactive) | IC50 [7]: > 66 µM (inactive)

COc1cc(CNCCc2c[nH]c3ccccc23)ccc1OCc1ccccc1F
EC50 [8]: 15.3 µM (active) | AC50 [2]: 4.72 µM (active) | EC50 [9]: 0.196 µM (active) | IC50 [10]: > 20 µM (inactive) | EC50 [11]: > 60 µM (inconclusive) | EC50 [12]: 13.6 µM (active)

CN(C)/C=C/C(=O)c1ccc2noc(-c3cccc(F)c3)c2c1
AC50 [4]: 7.95 µM (active)

CCN1CCN(C(c2ccc(C(F)(F)F)cc2)c2ccc3cccnc3c2O)CC1 (stereo not given)
EC50 [13]: 3.02 µM (active) | AC50 (INS1): 2.15 µM (active) | IC50 [6]: > 66 µM (inactive) | EC50 (Streptococcus): 3.5 µM (active) | AC50 [4]: 1.36 µM (active) | IC50 [7]: > 66 µM (inactive)

CCN(CC)c1ccc(/C=C2/C(=O)NC(=O)N(CC3CCCO3)C2=O)cc1 (stereo not given)
AC50 (Cytochrome P450 2C9): inconclusive

CN1CCN(c2ncc3nc(-c4cc(F)cc(F)c4)c(=O)n(C)c3n2)CC1
AC50 (Cytochrome P450 2C9): inconclusive | AC50 (Cytochrome P450 1A2): 5.01 µM (inconclusive)

CCC(c1nnnn1C(C)(C)C)N1CCN(c2cc(Cl)ccc2C)CC1 (stereo not given)
EC50 [14]: 5.94 µM (active)

Cc1cnc(CNc2ccnc(-c3cccnc3)n2)cn1
AC50 (Cytochrome P450 2C9): inconclusive | AC50 (Cytochrome P450 2D6): 25.1 µM (inconclusive)

Cc1ccc(-c2nnc(CSc3nnc(COc4ccccc4)n3-c3ccccc3)o2)cc1
EC50 [14]: 3.32 µM (active)

CC1CCCCN1CCNC(=O)c1ccc2c(=O)n(Cc3ccc(Cl)cc3)c(=S)[nH]c2c1 (stereo not given)
IC50 [10]: > 20 µM (inactive)

O=c1c2ccccc2nnn1CSc1nnc(COc2ccc(Cl)cc2)n1Cc1ccco1
AC50 [15]: 15.2 µM (active) | AC50 [4]: 3.26 µM (active) | AC50 [16]: 1.12 µM (active)

COc1ccccc1N1CCN(CC(=O)c2c(C)[nH]c3cc(C)ccc23)CC1
AC50 [17]: 5.47 µM (active) | EC50 [14]: 5.63 µM (active) | EC50 (Protein RecA): 94.2 µM (active)

Cc1ccc(C(c2nnnn2C(C)(C)C)N(Cc2ccco2)Cc2cccs2)cc1 (stereo not given)
EC50 [9]: 2.26 µM (active) | EC50 [11]: > 30 µM (not active) | EC50 [14]: 6.33 µM (active)

COC(=O)c1c(NC(=O)c2nc3ccccc3s2)sc2c1CCN(C(C)=O)C2
IC50 [10]: > 20 µM (inactive)

COc1ccccc1N1CCN(C(c2ccccc2Cl)c2nnnn2C(C)(C)C)CC1 (stereo not given)
EC50 [14]: 11.7 µM (active)

COc1ccc(C(CNC(=O)c2cc3c(s2)CCC(C)C3)N2CCCC2)cc1 (stereo not given)
IC50 [10]: > 20 µM (inactive)

CC(C)[C@@H]1CN=C(N)N1C[C@@H]1CCCN1C[C@H](C)N1C[C@@H](Cc2ccccc2)N(CCc2ccc(Cl)c(Cl)c2)C1=N
IC50 [10]: > 20 µM (inactive)

Cc1cc(C)cc(NC(=O)CCc2nc3ccccc3[nH]2)c1
AC50 (Cytochrome P450 2C9): inconclusive | AC50 (Cytochrome P450 1A2): 3.16 µM (inconclusive)

C/C(=N\OC(=O)c1cccc(C)c1)c1sc(-c2ccccc2)nc1C
AC50 (Cytochrome P450 2C9): inconclusive | AC50 (Cytochrome P450 2C19): 8.91 µM (inconclusive)

O=C1C=CC(=O)N1c1ccc(O)cc1
IC50 (Large T antigen): 81 µM (active) | AC50 [4]: 3.13 µM (active)

Nc1ccc(S(=O)(=O)Nc2nccs2)cc1 [SULFATHIAZOLE]
AC50 (Cytochrome P450 2C9): inconclusive
